According to paper PMC11953117 (Cancer Chemotherapy and Pharmacology, 2025):
Like-named read-outs stand apart in the source and are kept apart here.

Assay: Capivasertib exposure metrics at steady state projected with PopPK model, patients with solid tumors
Format: in vivo
Settings: human, plasma, oral; for concentration at 12 h: read-out: Cmin
Protocol: Study 1 (NCT01226316) was a phase 1 open-label multipart study. […] The duration of the treatment cycles was 21 days. […] [18]. […] [18, 25, 39].
Study 4 (NCT01353781) was a phase 1 dose-escalation study in Japanese patients with advanced solid malignancies.
The exposure–response analyses were conducted using a subset of patients from the PopPK analysis where capivasertib was used as monotherapy. […] As different schedules were assessed between and within studies, the exposure metrics were derived for the last dose of the last dosing day in the second week of treatment (i.e. on days 14, 11, and 9 for the continuous, [4/3] and [2/5] schedules, respectively), to ensure SS conditions, using the planned dose. […] The relative dose intensity (RDI) was calculated as the percentage of the average weekly dose relative to the PWD to examine the tolerability of capivasertib monotherapy at the given dosing schedules.

[1] = 320 mg, Study 4 (Japanese patients), Continuous BID, PWD 4480 mg, N=6, median (range)
[2] = 360 mg, Study 4 (Japanese patients), [4/3] BID, PWD 2880 mg, N=8, median (range)
[3] = 400 mg, Study 4 (Japanese patients), Continuous BID, PWD 5600 mg, N=5, median (range)
[4] = 480 mg, OAK, [4/3] BID, PWD 3840 mg, N=30, median (range)
[5] = 480 mg, Study 1, [4/3] BID, PWD 3840 mg, N=127, median (range)
[6] = 480 mg, Study 4 (Japanese patients), [4/3] BID, PWD 3840 mg, N=6, median (range)
[7] = 600 mg, Study 1, Continuous BID, PWD 8400 mg, N=2, median (range)
[8] = 640 mg, Study 1, [2/5] BID, PWD 2560 mg, N=8, median (range)
[9] = 640 mg, Study 1, [4/3] BID, PWD 5120 mg, N=10, median (range)
[10] = 640 mg, Study 4 (Japanese patients), [2/5] BID, PWD 2560 mg, N=6, median (range)
[11] = 800 mg, Study 1, [2/5] BID, PWD 3200 mg, N=14, median (range)

NC1(C(=O)N[C@@H](CCO)c2ccc(Cl)cc2)CCN(c2ncnc3[nH]ccc23)CC1 [capivasertib, 4-amino-N-[(1S)-1-(4-chlorophenyl)-3-hydroxypropyl]-1-(7H-pyrrolo[2,3-d]pyrimidin– 4-yl)piperidine-4-carboxamide]
AUC at 1 week [1]: 91800 ng·h/mL | Cmax [1]: 1380 ng/mL | AUC (360 mg, Study 4 (Japanese patients), [4/3] BID, 360 mg, PWD 2880 mg, N=8, median (range), read-out: AUCss(0–12 h)): 6100 ng·h/mL | concentration at 12 h (360 mg, Study 4 (Japanese patients), [4/3] BID, 360 mg, PWD 2880 mg, N=8, median (range)): 210 ng/mL | AUC at 1 week [2]: 48800 ng·h/mL | Cmax [2]: 960 ng/mL | AUC (400 mg, Study 1, Continuous BID, 400 mg, PWD 5600 mg, N=11, median (range), read-out: AUCPWD): 81000 ng·h/mL | AUC (400 mg, Study 1, Continuous BID, 400 mg, PWD 5600 mg, N=11, median (range), read-out: AUCss(0–12 h)): 5790 ng·h/mL | concentration at 12 h (400 mg, Study 1, Continuous BID, 400 mg, PWD 5600 mg, N=11, median (range)): 190 ng/mL | Cmax (400 mg, Study 1, Continuous BID, PWD 5600 mg, N=11, median (range)): 900 ng/mL | AUC (400 mg, Study 4 (Japanese patients), Continuous BID, 400 mg, PWD 5600 mg, N=5, median (range), read-out: AUCss(0–12 h)): 7750 ng·h/mL | concentration at 12 h (400 mg, Study 4 (Japanese patients), Continuous BID, 400 mg, PWD 5600 mg, N=5, median (range)): 270 ng/mL | AUC at 1 week [3]: 109000 ng·h/mL | Cmax [3]: 1240 ng/mL | AUC (480 mg, OAK, [4/3] BID, 480 mg, PWD 3840 mg, N=30, median (range), read-out: AUCss(0–12 h)): 9750 ng·h/mL | concentration at 12 h (480 mg, OAK, [4/3] BID, 480 mg, PWD 3840 mg, N=30, median (range)): 330 ng/mL | AUC at 1 week [4]: 78000 ng·h/mL | Cmax [4]: 1580 ng/mL | AUC (480 mg, Study 1, Continuous BID, 480 mg, PWD 6720 mg, N=6, median (range), read-out: AUCPWD): 140000 ng·h/mL | AUC (480 mg, Study 1, Continuous BID, 480 mg, PWD 6720 mg, N=6, median (range), read-out: AUCss(0–12 h)): 9980 ng·h/mL | concentration at 12 h (480 mg, Study 1, Continuous BID, 480 mg, PWD 6720 mg, N=6, median (range)): 370 ng/mL | Cmax (480 mg, Study 1, Continuous BID, PWD 6720 mg, N=6, median (range)): 1620 ng/mL | AUC (480 mg, Study 1, [4/3] BID, 480 mg, PWD 3840 mg, N=127, median (range), read-out: AUCss(0–12 h)): 9690 ng·h/mL | concentration at 12 h (480 mg, Study 1, [4/3] BID, 480 mg, PWD 3840 mg, N=127, median (range)): 330 ng/mL | AUC at 1 week [5]: 77400 ng·h/mL | Cmax [5]: 1590 ng/mL | AUC (480 mg, Study 4 (Japanese patients), [4/3] BID, 480 mg, PWD 3840 mg, N=6, median (range), read-out: AUCss(0–12 h)): 10800 ng·h/mL | concentration at 12 h (480 mg, Study 4 (Japanese patients), [4/3] BID, 480 mg, PWD 3840 mg, N=6, median (range)): 290 ng/mL | AUC at 1 week [6]: 86800 ng·h/mL | Cmax [6]: 1880 ng/mL | AUC (600 mg, Study 1, Continuous BID, 600 mg, PWD 8400 mg, N=2, median (range), read-out: AUCss(0–12 h)): 14300 ng·h/mL | concentration at 12 h (600 mg, Study 1, Continuous BID, 600 mg, PWD 8400 mg, N=2, median (range)): 460 ng/mL | AUC at 1 week [7]: 200000 ng·h/mL | Cmax [7]: 2520 ng/mL | AUC (640 mg, Study 1, [2/5] BID, 640 mg, PWD 2560 mg, N=8, median (range), read-out: AUCss(0–12 h)): 15000 ng·h/mL | concentration at 12 h (640 mg, Study 1, [2/5] BID, 640 mg, PWD 2560 mg, N=8, median (range)): 570 ng/mL | AUC at 1 week [8]: 59800 ng·h/mL | Cmax [8]: 2080 ng/mL | AUC (640 mg, Study 1, [4/3] BID, 640 mg, PWD 5120 mg, N=10, median (range), read-out: AUCss(0–12 h)): 15900 ng·h/mL | concentration at 12 h (640 mg, Study 1, [4/3] BID, 640 mg, PWD 5120 mg, N=10, median (range)): 550 ng/mL | AUC at 1 week [9]: 127000 ng·h/mL | Cmax [9]: 2430 ng/mL | AUC (640 mg, Study 4 (Japanese patients), [2/5] BID, 640 mg, PWD 2560 mg, N=6, median (range), read-out: AUCss(0–12 h)): 15200 ng·h/mL | concentration at 12 h (640 mg, Study 4 (Japanese patients), [2/5] BID, 640 mg, PWD 2560 mg, N=6, median (range)): 570 ng/mL | AUC at 1 week [10]: 61000 ng·h/mL | Cmax [10]: 2480 ng/mL | AUC (800 mg, Study 1, [2/5] BID, 800 mg, PWD 3200 mg, N=14, median (range), read-out: AUCss(0–12 h)): 26400 ng·h/mL | concentration at 12 h (800 mg, Study 1, [2/5] BID, 800 mg, PWD 3200 mg, N=14, median (range)): 1080 ng/mL | AUC at 1 week [11]: 106000 ng·h/mL | Cmax [11]: 3930 ng/mL
